Source: patent US20100331269A1, “TRITERPENES DERIVATIVES AND USES THEREOF AS ANTITUMOR AGENTS OR ANTI-INFLAMMATORY AGENTS” (priority 2006, published 2010)

Tests used:
[1] = Determination of the maximum tolerated dose (MTD) after a single IP injection; format: in vivo, mice; settings: for CSS Closed eyes / CSS Diarrhea / CSS Lethargy / CSS Rough coat / CSS Total / Number of deaths: 5 mice
Method: Groups of five mice (Charles River) received a single IP injection of 3-O-α-L-rhamnopyranoside betulinic acid (22) in DMSO at doses of 50, 100, 250 and 500 mg/kg of body weight. […] A group of five control mice received the vehicle (DMSO). […] For each animal, a score was calculated based on the absence (value 0) or presence (value 1) of diarrhoea, lethargy, rough coat and closed eyes. A clinical state score (CSS) was then calculated per group by summing individual scores. All the mice were weighed daily during 3 days following the injection. The maximal weight loss was determined 24 hours and 3 days following the injection. The MTD was defined as the highest single dose that met all the following criteria: 1) zero death per group; 2) maximal weight loss 20% in non-tumour bearing animals; and 3) CSS value lower than 15.

[2] = test system: U-251 human glioma cells; assay: Cytotoxicity, resazurin metabolism assay, U-251; format: cell-based; settings: mean ± SD
Source text: (§1) Human lung carcinoma (A-549), human colon adenocarcinoma (DLD-1), human normal fibroblasts (WS1), mice melanoma (B16-F1), Human glioma (U-251), Human hepatocellular carcinoma (HEP G2), Human prostate adenocarcinoma (PC-3), Human ovary teratocarcinoma metastatic (PA-1), Human breast adenocarcinona metastatic (MDA-MB-231), Human breast adenocarcinoma (MCF-7) and Human malignant melanoma (SK-MEL-2) cell lines were obtained from the American Type Culture Collection (ATCC). All cell lines were cultured in minimum essential medium containing Earle's salts and L-glutamine (Mediatech Cellgro, Va.), to which was added 10% fetal bovine serum (Hyclone), vitamins (1×), penicillin (100 I.U./mL) and streptomycin (100 μg/mL), essential amino acids (1×) and sodium pyruvate (1×) (Mediatech Cellgro, Va.). Cells were kept at 37° C. in a humidified environment containing 5% CO2.
(§2) Exponentially growing cells were plated in 96-well microplates (Costar, Corning Inc.) at a density of 5×10^3 cells per well in 100 μL of culture medium and were allowed to adhere for 16 hours before treatment. Increasing concentrations of each compound in DMSO (Sigma-Aldrich) were then added (100 μL per well) and the cells were incubated for 48 h. […] Cytotoxicity was assessed using resazurin (O'Brien, J. et al., Eur. J. Biochem. 2000, 267, 5421-5426) on an automated 96-well Fluoroskan Ascent F1™ plate reader (Labsystems) using excitation and emission wavelengths of 530 nm and 590 nm, respectively. Fluorescence was proportional to the cellular metabolic activity in each well. Survival percentage was defined as the fluorescence in experimental wells compared to that in control wells after subtraction of blank values. Each experiment was carried out three times in triplicata. IC50 results were expressed as mean±standard deviation.
(§3) Compounds presented in Table 5 below were also tested in the following tumour cell lines: U-251 (Human glioma), HEP G2 (Human hepatocellular carcinoma), PC-3 (Human prostate adenocarcinoma), PA-1 (Human ovary teratocarcinoma metastatic), MDA-MB-231 (Human breast adenocarcinona metastatic), MCF-7 (Human breast adenocarcinoma) and SK-MEL-2 (Human malignant melanoma).

[3] = test system: SK-Mel-2 human melanoma cells; assay: Cytotoxicity, resazurin metabolism assay, SK-Mel-2; format: cell-based; settings: mean ± SD
Source text: as §1, §2, §3

[4] = test system: PC-3 human prostate adenocarcinoma cells; assay: Cytotoxicity, resazurin metabolism assay, PC-3; format: cell-based; settings: mean ± SD
Source text: as §1, §2, §3

[5] = test system: Hep G2 human hepatocellular carcinoma cells; assay: Cytotoxicity, resazurin metabolism assay, Hep G2; format: cell-based; settings: mean ± SD
Source text: as §1, §2, §3

[6] = test system: MCF-7 human breast adenocarcinoma cells; assay: Cytotoxicity, resazurin metabolism assay, MCF-7; format: cell-based; settings: mean ± SD
Source text: as §1, §2, §3

[7] = test system: DLD-1 human colorectal adenocarcinoma cells; assay: Cytotoxicity, resazurin metabolism assay, DLD-1; format: cell-based; settings: 48 h, mean ± SD
How it was run: (§4)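 Cells plated at 5×10^3/well, adhered 16 h, then exposed to increasing compound concentrations (DMSO) for 48 h. Viability by resazurin reduction, fluorescence ex 530/em 590 nm, blank-subtracted versus control wells; IC50 as mean±SD from three experiments in triplicate.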

[8] = test system: WS-1 cells; assay: Cytotoxicity, Hoechst DNA assay, WS-1; format: cell-based, human; settings: ± SD
How it was run: (§5)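 Cells grown at 37 °C, 5% CO2, in MEM with 10% FBS. Compound cytotoxicity was measured by Hoechst DNA staining. Activity is expressed as IC50, the concentration inhibiting 50% of cell growth.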

[9] = test system: DLD-1 cells; assay: Cytotoxicity, Hoechst DNA assay, DLD-1; format: cell-based, human; settings: ± SD
How it was run: as §5

[10] = Toxicity of treatment by body weight of tumour-bearing mice; settings: Lewis lung cancer-bearing mice, IP treatment, day 13
Source text: Individual dose were based on the body weight of each mouse.

[11] = test system: MDA-MB-231 human breast adenocarcinoma cells; assay: Cytotoxicity, resazurin metabolism assay, MDA-MB-231; format: cell-based; settings: mean ± SD
Source text: as §1, §2, §3

[12] = test system: WS-1 human normal skin fibroblasts; assay: Cytotoxicity, resazurin metabolism assay, WS-1; format: cell-based; settings: 48 h, mean ± SD
How it was run: as §4

[13] = test system: A-549 human lung carcinoma cells; assay: Cytotoxicity, resazurin metabolism assay, A-549; format: cell-based; settings: 48 h, mean ± SD
How it was run: as §4

[14] = test system: B16-F1 mouse melanoma cells; assay: Cytotoxicity, resazurin metabolism assay, B16-F1; format: cell-based; settings: 48 h, mean ± SD
How it was run: as §4

## C=C(C)[C@@H]1CC[C@]2(C(=O)O)CC[C@]3(C)[C@H](CC[C@@H]4[C@@]5(C)CC[C@H](O[C@@H]6O[C@@H](C)[C@H](O)[C@@H](O)[C@H]6O)C(C)(C)[C@@H]5CC[C@]43C)[C@@H]12 [Compound 22, 3-O-α-L-Rhamnopyranoside of betulinic acid]
[1]; 50 mg/kg single IP
  Max. weight loss after 24 hours: 11%
  Max. weight loss after 3 days: 0%
  CSS Closed eyes: 0
  CSS Diarrhea: 0
  CSS Lethargy: 0
  CSS Rough coat: 0
  CSS Total: 0
  Number of deaths: 0
[1]; 100 mg/kg single IP
  Max. weight loss after 24 hours: 14%
  Max. weight loss after 3 days: 0%
  CSS Closed eyes: 0
  CSS Diarrhea: 0
  CSS Lethargy: 0
  CSS Rough coat: 0
  CSS Total: 0
  Number of deaths: 0
[1]; 250 mg/kg single IP
  Max. weight loss after 24 hours: 9%
  Max. weight loss after 3 days: 0%
  CSS Closed eyes: 5
  CSS Diarrhea: 0
  CSS Lethargy: 0
  CSS Rough coat: 5
  CSS Total: 10
  Number of deaths: 0
[1]; 500 mg/kg single IP
  Max. weight loss after 24 hours: 11%
  Max. weight loss after 3 days: 0%
  Rough coat and closed eyes observed, share of the mice: 100%
  CSS Closed eyes: 5
  CSS Diarrhea: 5
  CSS Lethargy: 2
  CSS Rough coat: 5
  CSS Total: 17
  Number of deaths: 0
[1]; 60 kg human
  Calculated dose for an average human weighting 60 kg: 139.8 mg
[1]; all tested doses (50-500 mg/kg), single IP
  Body weight loss after 24 h: 9-14%
[1]; all tested doses, single IP
  Mortality: no mortality
  Weight loss after 3 days (returned to initial weight): 0%
[1]; human equivalent dose divided by 10
  Calculated MTD (human, after security factor of 10): 2.33 mg/kg
[1]; mice, single IP injection in DMSO
  MTD (maximum tolerated dose): 250 mg/kg
[1]; mouse MTD 250 mg/kg divided by conversion factor 12.3
  MTD equivalent in human (human equivalent dose): 20.33 mg/kg
[2]
  IC50: 20 ± 2 µM
[3]
  IC50: 20 ± 7 µM
[4]
  IC50: 20 ± 6 µM
[5]
  IC50: 20 ± 2 µM
[6]
  IC50: 16 ± 2 µM
[7]
  IC50: 3.9 ± 0.4 µM
[8]
  IC50: 38 ± 6 µM
[9]
  IC50: 3.4 ± 0.5 µM
[10]
  Toxicity / body weight loss compared with controls: did not show any sign of toxicity or body weight loss
[11]
  IC50: 19 ± 2 µM
[12]
  IC50: 31 ± 3 µM
[13]
  IC50: 2600 ± 600 nM
[14]
  IC50: 3.9 ± 0.4 µM
